Test results taken from US9745339B2 (GRAFFINITY PHARMACEUTICALS GMBH, priority 2012, dated 2017).

Tests used:
[1] = tested on: host cell proteins (HCP); experiment: Microtiter plate chromatography of resins: binding of host cell proteins; parameters: species or system CHO cell culture; details: fraction of injected undiluted host cell proteins bound
Summary of the method: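 Undiluted HCP-containing flowthrough from protein A chromatography of CHO serum-free culture was loaded onto ~30 µl packed resin columns in microtiter-plate format. Columns were washed with 5 cv PBS and eluted with glycine pH 2.5, and fractions were quantified by Bradford. Bound fraction = (injected − flowthrough mass)/injected mass.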

[2] = molecular target: T1, Bevacizumab (Homo sapiens, UniProt P01857); experiment: Langmuir isotherms by batch adsorption; format: binding; details: for Kd: Bevacizumab 0.05-5 mg/ml in PBS pH 7.3, 25° C., at least 3 h, read-out: kd (dissociation constant, Langmuir isotherm) (converted); for qm (maximum capacity): mg Bevacizumab per ml of resin, Langmuir isotherm
T1 construct: 0.5 mg/ml IgG in PBS pH 7.3; ligand immobilized on SEPHAR; Bevacizumab Yield; other: mass eluted (glycine pH 2.5) / mass injected; kd (dissociation constant, Langmuir isotherm); other: Bevacizumab 0.05-5 mg/ml in PBS pH 7.3, 25° C., at least 3 h; qm (maximum capacity); other: mg Bevacizumab per ml of resin; Langmuir isotherm; t0; fused on or other part: Humanized anti-VEGF-A VH domain joined N-terminally to the IGHG1 constant region (engineered, no UniProt entry)
Method: Experiments were performed with Bevacizumab as antibody. Parameters of Langmuir isotherms for purified antibody were determined by batch adsorption experiments in 96-well microtiter plates. In each well, 10 μl of sorbent slurry (50% v/v) were mixed with 100 μl of protein solution. Initial concentrations varied from 0.05-5 mg/ml in phosphate-buffered saline (0.15 M NaCl, 20 mM phosphate buffer, pH 7.3; PBS). Reactions were agitated vigorously at 25° C. for at least 3 h. Afterwards, antibody concentration in the supernatants were measured by Bradford assay. Data was evaluated by direct fitting of the values with the Langmuir isotherm equation (1).
Parameters of Langmuir isotherms, i.e. dissociation constants Kd and maximum capacities qm, were determined from the measured concentrations in the supernatants. Parameters were estimated by numerical fitting of the model equation derived by Chase (1)

[3] = tested on: Cetuximab; experiment: Microtiter plate chromatography of resins: binding and elution of Cetuximab; details: fraction of injected protein bound; 0.5 mg/ml IgG in PBS pH 7.3
Summary of the method: (§1)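 About 30 μl resin columns loaded with 3.3 cv IgG at 0.5 mg ml^−1 in PBS (or undiluted HCP), washed with 5 cv PBS, eluted with 5 cv glycine pH 2.5. Fractions quantified by Bradford; bound fraction = (mi−mft)/mi, yield = me/mi.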

[4] = molecular target: T1, Bevacizumab; experiment: Uptake kinetics by batch adsorption (time-scale of binding); details: time after which 80% of equilibrium saturation occurred; 0.75 mg/ml Bevacizumab in PBS, 25° C.
Method: Uptake kinetics was investigated similarly by batch adsorption in 96-well filter plates. Again, 10 μl of sorbent slurry (50% v/v) were mixed with 100 μl of protein solution. […] Reactions were agitated vigorously at 25° C. for up to 80 min. Supernatants were separated rapidly by spinning through filters after 2.5, 5, 10, 20, 40 and 80 minutes and sampled for analysis. Concentrations of the antibody were analyzed by Bradford assay.
For determination of t0.8, measured concentrations in the supernatant were interpolated by fitting of double-exponentials and values of t0.8 were read out from graphs (2).

[5] = molecular target: T1, Bevacizumab; experiment: Microtiter plate chromatography of resins: binding and elution of Bevacizumab; details: for Bevacizumab Bound: fraction of injected protein bound, 0.5 mg/ml IgG in PBS pH 7.3, ligand immobilized on SEPHAROSE 4 FF; for Bevacizumab Yield: mass eluted (glycine pH 2.5) / mass injected
Summary of the method: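 About 30 μl packed resin columns loaded with 3.3 cv IgG at 0.5 mg ml^−1 in PBS or undiluted HCP, washed with 5 cv PBS, eluted with 5 cv glycine pH 2.5. Protein in fractions by Bradford. Bound fraction = (injected − flowthrough)/injected; yield = eluted/injected; selectivity = Bevacizumab bound fraction / HCP bound fraction, truncated beyond 10.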

[6] = tested on: Tocilizumab; experiment: Microtiter plate chromatography of resins: binding and elution of Tocilizumab; details: fraction of injected protein bound; 0.5 mg/ml IgG in PBS pH 7.3
Summary of the method: as §1

[7] = tested on: Palivizumab; experiment: Microtiter plate chromatography of resins: binding and elution of Palivizumab; details: fraction of injected protein bound; 0.5 mg/ml IgG in PBS pH 7.3
Summary of the method: as §1

[8] = tested on: poly-IgG from human serum (h-poly-IgG); experiment: Microtiter plate chromatography of resins: binding and elution of human poly-IgG; details: fraction of injected protein bound; 0.5 mg/ml IgG in PBS pH 7.3
Summary of the method: as §1

[9] = Alkaline stability of ligands in 0.5 M sodium hydroxide; format: physicochemical; details: 25° C., 8 days, hydrolysis monitored by LC-MS, read-out: t0.5 (half-life) (converted)
Method: A subset of ligands from Example 1 was tested for its alkaline stability. Ligands were treated with 0.5 M sodium hydroxide at 25° C. for 8 days. Hydrolysis was monitored by LC-MS analysis.

Kd [2] [µM] | qm (maximum capacity) [2] [mg/mL] | Cetuximab Bound [3] [%] | t0.8 (time-scale of binding) [4] [min] | Bevacizumab Bound [5] [%] | Bevacizumab Yield [5] [%] | Tocilizumab Bound [6] [%] | Palivizumab Bound [7] [%] | h-poly-IgG Bound [8] [%] | half-life [9] [days] | SMILES | HCP Bound [1] [%]
324 | 41 | 100 | – | 100 | 101 | 100 | 91 | 100 | > 41.6 | Cn1nc(NC(=O)c2ccc3c(c2)ncn3CCCN)c2ccccc21 [Ligand L02, 1-(3-Amino-1-propyl)benzimidazole-5-carboxylic acid N-(1-methyl-3-indazolyl) amide] | 28
117 | 45 | 100 | 5.3 | 100 | 95 | 100 | 100 | 100 | – | Cn1c(CCCCCN)nc2cc(C(=O)Nc3nnc(-c4ccco4)s3)ccc21 [Ligand L31, 2-(5-Amino-1-pentyl)-1-methylbenzimidazole-5-carboxylic acid N-[5-(2-furyl)-1,3,4-thiadiazol-2-yl]amide] | 20
– | 34 | 100 | 8.8 | 100 | 95 | 98 | 94 | 97 | – | Cc1nc2cc(C(=O)Nc3nc(-c4ccncc4)cs3)ccc2n1CCCN [Ligand L51, 1-(3-Amino-1-propyl)-2-methylbenzimidazole-5-carboxylic acid N-[4-(4-pyridyl)thiazol-2-yl] amide] | 15
131 | 34 | 100 | 11.8 | 100 | 96 | 100 | 100 | 100 | – | N[C@@H](CCC(=O)NCCOCCOCCn1cnc2cc(C(=O)Nc3nnc(-c4ccco4)s3)ccc21)C(=O)NCCOCCOCCn1cnc2cc(C(=O)Nc3nnc(-c4ccco4)s3)ccc21 [Ligand L53] | 11
46.9 | 35 | 100 | 8.4 | 100 | 95 | 100 | 100 | 100 | – | Cc1nc2cc(C(=O)Nc3nnc(-c4ccco4)s3)ccc2n1CCOCCOCCNC(=O)CC[C@H](N)C(=O)NCCOCCOCCn1c(C)nc2cc(C(=O)Nc3nnc(-c4ccco4)s3)ccc21 [Ligand L54] | 4

SMILES | Kd [2] [µM] | qm (maximum capacity) [2] [mg/mL] | Cetuximab Bound [3] [%] | t0.8 (time-scale of binding) [4] [min] | Bevacizumab Bound [5] [%] | Bevacizumab Yield [5] [%] | Tocilizumab Bound [6] [%] | Palivizumab Bound [7] [%] | h-poly-IgG Bound [8] [%] | half-life [9] [days] | HCP Bound [1] [%]
NCCOCCOCCn1cnc2cc(C(=O)Nc3nnc(-c4ccco4)s3)ccc21 | 85.9 | 37 | 99 | 6.6 | 100 | 99 | 100 | 100 | 100 | – | 4
NCCOCCOCCn1cnc2cc(C(=O)Nc3nc(-c4ccccn4)cs3)ccc21 | – | 41 | 100 | 9.0 | 100 | 103 | 100 | 98 | 100 | – | 13
Cc1nc2cc(C(=O)Nc3nnc(-c4ccco4)s3)ccc2n1CCOCCOCCN | 333 | 45 | 100 | 8.9 | 100 | 97 | 100 | 100 | 100 | – | 0
